Data published in the supplement of paper PMC5908809.

Key:
[1] = system: normal primary NK cells, pool 2 (3 donors) (IL-2 2.5 ng/mL); test: percent inhibition of viability; higher = more inhibition; settings: 72 h
[2] = system: normal primary NK cells, pool 1 (3 donors), resting (IL-2 0 ng/mL); test: as above; settings: 72 h
[3] = system: DERL-7 (IL-2 2.5 ng/mL); test: as above; settings: 72 h
[4] = system: IMC-1 (IL-2 20 ng/mL); test: as above; settings: 72 h
[5] = system: NK-92 (IL-2 2.5 ng/mL); test: as above; settings: 72 h
[6] = system: normal primary NK cells, pool 3 (3 donors) (IL-2 2.5 ng/mL); test: as above; settings: 72 h
[7] = system: KHYG-1 (IL-2 2.5 ng/mL); test: as above; settings: 72 h
[8] = system: NKL (IL-2 2.5 ng/mL); test: as above; settings: 72 h
[9] = system: normal primary NK cells, pool 1 (3 donors) (IL-2 2.5 ng/mL); test: as above; settings: 72 h
[10] = system: YT (IL-2 2.5 ng/mL); test: as above; settings: 72 h
[11] = system: NK-YS (IL-2 2.5 ng/mL); test: as above; settings: 72 h
[12] = system: KAI3 (IL-2 2.5 ng/mL); test: as above; settings: 72 h
[13] = system: SNK-6 (IL-2 2.5 ng/mL); test: as above; settings: 72 h
[14] = system: normal NK cells expanded with K562-aAPC; test: drug sensitivity score (DSS) (DSS units); higher = more sensitive; extreme values may be limits of the assay; settings: 72 h; IL-2 2.5 ng/mL
Experimental: (§1)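 Drug sensitivity and resistance testing on K562-aAPC-expanded normal NK cells: 5 concentrations (10-fold steps over a 10,000-fold range), 72 h at 37 °C, viability by CellTiter-Glo normalised to DMSO and benzethonium chloride controls; DSS from the fitted curve.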

[15] = system: normal primary NK cells, pool 2 (3 donors) (IL-2 2.5 ng/mL); test: as above; settings: 72 h
[16] = system: normal primary NK cells, pool 1 (3 donors), resting (IL-2 0 ng/mL); test: as above; settings: 72 h
[17] = system: DERL-7 (IL-2 2.5 ng/mL); test: as above; settings: 72 h
[18] = system: IMC-1 (IL-2 20 ng/mL); test: as above; settings: 72 h
[19] = system: NK-92 (IL-2 2.5 ng/mL); test: as above; settings: 72 h
[20] = system: normal primary NK cells, pool 3 (3 donors) (IL-2 2.5 ng/mL); test: as above; settings: 72 h
[21] = system: KHYG-1 (IL-2 2.5 ng/mL); test: as above; settings: 72 h
[22] = system: NKL (IL-2 2.5 ng/mL); test: as above; settings: 72 h
[23] = system: normal primary NK cells, pool 1 (3 donors) (IL-2 2.5 ng/mL); test: as above; settings: 72 h
[24] = system: YT (IL-2 2.5 ng/mL); test: as above; settings: 72 h
[25] = system: NK-YS (IL-2 2.5 ng/mL); test: as above; settings: 72 h
[26] = system: KAI3 (IL-2 2.5 ng/mL); test: as above; settings: 72 h
[27] = system: SNK-6 (IL-2 2.5 ng/mL); test: as above; settings: 72 h
[28] = system: normal NK cells expanded with K562-aAPC; test: percent inhibition of viability; higher = more inhibition; settings: 72 h, IL-2 2.5 ng/mL
Experimental: as §1

CC/C(=C(\c1ccccc1)c1ccc(OCCN(C)C)cc1)c1ccccc1 [Tamoxifen] (max concentration tested 10000 nM)
percent inhibition of viability [%]
Settings | 1 nM | 10 nM | 100 nM | 1000 nM | 10000 nM
[1] | -3.62 | 2.15 | -3.66 | 4.91 | 68.8
[2] | 2.3 | 22 | 15.1 | 20.6 | 90.1
[3] | 1.51 | 5.51 | 6.94 | 12.4 | 58.1
[4] | 2.26 | 1.26 | 1.8 | 5.99 | 14.7
[5] | -11.7 | -1.59 | -5.3 | 2.31 | 75.2
[6] | -1.03 | 0.09 | 5.67 | -1.54 | 30.3
[7] | -5.57 | -6.4 | 1.61 | 13.7 | 44.6
[8] | -6.42 | -9.93 | 0.08 | 21.2 | 73.4
[9] | 1.45 | 8.11 | 7.67 | 12.3 | 89.6
[10] | -0.53 | -2.4 | 0.91 | 3.43 | 58.4
[11] | -7.45 | -5.92 | -3.79 | 2.63 | 33.2
[12] | -0.42 | -4.09 | 3.87 | 8.65 | 100
[13] | -6.58 | -17.5 | -11.6 | -6.09 | 51.8
[28] | -7.94 | -6.09 | -3.11 | 5.82 | 37.2

Settings | drug sensitivity score
[14] | 2.77
[15] | 4.53
[16] | 8.03
[17] | 5.15
[18] | 0.37
[19] | 4.46
[20] | 1.21
[21] | 4.33
[22] | 7.22
[23] | 7.04
[24] | 3.65
[25] | 1.92
[26] | 6.93
[27] | 2.32

C[C@]12O[C@H](C[C@]1(O)CO)n1c3ccccc3c3c4c(c5c6ccccc6n2c5c31)CNC4=O [Lestaurtinib] (max concentration tested 1000 nM)
percent inhibition of viability [%]
Settings | 0.1 nM | 1 nM | 10 nM | 100 nM | 1000 nM
[1] | -7.68 | 3.05 | 13.7 | 69.3 | 73
[2] | 4.88 | -1.99 | -2.95 | 26 | 18.6
[3] | 6.54 | 3.47 | 17.9 | 85.4 | 99.6
[4] | -6.9 | -5.94 | -22.2 | 51.8 | 98.9
[5] | -0.14 | -6.28 | 7.06 | 76.2 | 82.7
[6] | -8.42 | -14 | -3.13 | 65.2 | 72.3
[7] | -2.95 | 1.85 | 23.3 | 99.3 | 98.2
[8] | -13.1 | -12.9 | 13.3 | 71.2 | 80.6
[9] | -8.02 | -1.5 | 10.2 | 76 | 75.2
[10] | -2.5 | -0.06 | 3.18 | 55.1 | 91.6
[11] | -0.02 | 0.67 | 6.21 | 48.1 | 87.8
[12] | -0.38 | 3.13 | 35.9 | 86.4 | 76.4
[13] | 0.62 | 7.99 | 4.23 | 64.6 | 73.7
[28] | 0.88 | 0.03 | 29 | 96.5 | 95.9

Settings | drug sensitivity score
[14] | 21.6
[15] | 14.7
[16] | 3.91
[17] | 17.9
[18] | 11.8
[19] | 15
[20] | 11.9
[21] | 21.5
[22] | 14.8
[23] | 15.6
[24] | 11.7
[25] | 10.6
[26] | 20.1
[27] | 12.5

O=C(CCCCCCC(=O)Nc1ccccc1)NO [Vorinostat] (max concentration tested 10000 nM)
percent inhibition of viability [%]
Settings | 1 nM | 10 nM | 100 nM | 1000 nM | 10000 nM
[1] | -5.53 | -2.6 | -3.11 | 42.6 | 96.4
[2] | -1.81 | 11.6 | 10.4 | 71.9 | 90.8
[3] | -1.03 | -2.59 | -8.59 | 72 | 101
[4] | -3.93 | -0.96 | -3.21 | 10.4 | 101
[5] | -12.1 | -8.53 | 8.96 | 76.6 | 107
[6] | -8.36 | -6.48 | 0.69 | 14.9 | 98.3
[7] | -10.8 | -5.48 | -3.11 | 83.4 | 108
[8] | -8.87 | -13.6 | 15.1 | 78.1 | 107
[9] | 10.5 | 10 | 21.7 | 67.8 | 98.3
[10] | -0.8 | -1.86 | 3.47 | 27.2 | 106
[11] | -9.89 | -6.61 | -3.67 | 40.2 | 105
[12] | -1.17 | 1.24 | 28.6 | 72.4 | 106
[13] | 1.27 | -7.67 | 9.77 | 59.8 | 100
[28] | -0.79 | -2.42 | 2.48 | 56.2 | 100

Settings | drug sensitivity score
[14] | 12.2
[15] | 10.8
[16] | 14.8
[17] | 13.7
[18] | 7.28
[19] | 15.4
[20] | 7.93
[21] | 15.2
[22] | 16.4
[23] | 15.7
[24] | 9.63
[25] | 10.9
[26] | 17.3
[27] | 13

COc1cc([C@@H]2c3cc4c(cc3[C@@H](O[C@@H]3O[C@@H]5CO[C@@H](C)O[C@H]5[C@H](O)[C@H]3O)[C@H]3COC(=O)[C@H]23)OCO4)cc(OC)c1O [Etoposide] (max concentration tested 10000 nM)
percent inhibition of viability [%]
Settings | 1 nM | 10 nM | 100 nM | 1000 nM | 10000 nM
[1] | -2.19 | -0.27 | 0.34 | 8.73 | 53.7
[2] | 0.93 | 10 | 22.8 | 40 | 90.5
[3] | -3.7 | 3.15 | 32.8 | 97 | 82.8
[4] | -6.15 | 1.75 | 34.8 | 97.9 | 99.5
[5] | -7.31 | -6.78 | 5.02 | 67.3 | 101
[6] | 0.28 | -3.78 | 10.1 | 11.7 | 48.3
[7] | -3.98 | -9.64 | 3.44 | 87.1 | 101
[8] | -3.26 | 4.8 | 80.7 | 94.3 | 101
[9] | -1.51 | 1.58 | 11.1 | 14.3 | 79.7
[10] | -3.45 | -8.19 | -5.67 | 44.7 | 98.2
[11] | 3.6 | 4.01 | 29.1 | 77.3 | 83.9
[12] | 5.94 | 13.2 | 41.3 | 76.4 | 78
[13] | -11.1 | 0.92 | -0.88 | 74.3 | 96.2
[28] | -5.25 | -8.84 | -1.72 | 49.7 | 65.7

Settings | drug sensitivity score
[14] | 9.42
[15] | 4.34
[16] | 11.3
[17] | 21.9
[18] | 22.2
[19] | 13.7
[20] | 4.07
[21] | 16.2
[22] | 28
[23] | 6.78
[24] | 11.1
[25] | 17.7
[26] | 19.3
[27] | 13.8

Cc1ccc(Nc2nccc(N(C)c3ccc4c(C)n(C)nc4c3)n2)cc1S(N)(=O)=O [Pazopanib] (max concentration tested 10000 nM)
percent inhibition of viability [%]
Settings | 1 nM | 10 nM | 100 nM | 1000 nM | 10000 nM
[1] | -17.7 | -14.4 | -13.5 | -2.24 | 2.28
[2] | 8.82 | 5.43 | -6.14 | -6.41 | 4.16
[3] | -0.93 | 9.12 | -0.5 | -6.76 | -10.4
[4] | -4.11 | -5.35 | 2.08 | 16.6 | 44.2
[5] | 3.54 | 3.74 | 11.9 | 27.6 | 33.7
[6] | -10.1 | -9.49 | -4.17 | -3.69 | -2.21
[7] | -2.36 | -0.84 | 4.74 | 27.1 | 36.6
[8] | -16.9 | -17.8 | -11.3 | 13.6 | 14.8
[9] | -5.94 | 2.19 | -7.48 | -8.52 | -1.45
[10] | 0.54 | 3.53 | 8.86 | 14.9 | 16.6
[11] | -0.74 | 0.29 | 6.42 | 12.1 | 15.1
[12] | -4.79 | -5.2 | 1.76 | 10.1 | 18.6
[13] | 7.81 | 14.5 | 36.6 | 53.3 | 48.6
[28] | 3.24 | -2.13 | 1.77 | 5.99 | 11.2

Settings | drug sensitivity score
[14] | 0.02
[15] | 0
[16] | 0
[17] | 0
[18] | 4.34
[19] | 5.68
[20] | 0
[21] | 5.18
[22] | 1.08
[23] | 0
[24] | 1.79
[25] | 1.11
[26] | 1.17
[27] | 15
